What is called IC50 is the point on the concentration scale where inhibition reaches its midpoint. Low values mean higher potency, high ones lower potency.

Data on 42 compounds can be found in US20240208968A1, “ALPHA V BETA 6 AND ALPHA V BETA 1 INTEGRIN INHIBITORS AND USES THEREOF” (DiCE Molecules SV, Inc., priority 2021, published 2024).

The target of one test is αvβ6 (Homo sapiens, UniProt P06756+P18564). Put plainly: Solid Phase Integrin αvβ6 Assay. The test is classed as binding. An outline of the steps:
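Plates coated with 1 μg/mL recombinant TGFb1-LAP; compounds and αvβ6 (0.2 μg/mL diluted stock) incubated 1 h at room temperature in 2% BSA/TBST with 1 mM MnCl2. Bound integrin detected with streptavidin-HRP and TMB; IC50 from four-parameter logistic fits.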

In a further test the target is αvβ1 (Homo sapiens, UniProt P05556+P06756). Put plainly: Solid Phase Integrin αvβ1 Assay. The test is classed as binding. In outline:
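Wells coated with 1 µg/mL recombinant TGFb1-LAP and blocked with 2% BSA/TBST, 1 mM MnCl2; αvβ1 (added at 0.2 µg/mL) and compound incubated 90 min at room temperature. Bound integrin detected by streptavidin-HRP (20 min) and TMB after Mn-containing washes; IC50 by four-parameter logistic fit.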

Chain of αvβ1 (P06756 31-992 limits assumed): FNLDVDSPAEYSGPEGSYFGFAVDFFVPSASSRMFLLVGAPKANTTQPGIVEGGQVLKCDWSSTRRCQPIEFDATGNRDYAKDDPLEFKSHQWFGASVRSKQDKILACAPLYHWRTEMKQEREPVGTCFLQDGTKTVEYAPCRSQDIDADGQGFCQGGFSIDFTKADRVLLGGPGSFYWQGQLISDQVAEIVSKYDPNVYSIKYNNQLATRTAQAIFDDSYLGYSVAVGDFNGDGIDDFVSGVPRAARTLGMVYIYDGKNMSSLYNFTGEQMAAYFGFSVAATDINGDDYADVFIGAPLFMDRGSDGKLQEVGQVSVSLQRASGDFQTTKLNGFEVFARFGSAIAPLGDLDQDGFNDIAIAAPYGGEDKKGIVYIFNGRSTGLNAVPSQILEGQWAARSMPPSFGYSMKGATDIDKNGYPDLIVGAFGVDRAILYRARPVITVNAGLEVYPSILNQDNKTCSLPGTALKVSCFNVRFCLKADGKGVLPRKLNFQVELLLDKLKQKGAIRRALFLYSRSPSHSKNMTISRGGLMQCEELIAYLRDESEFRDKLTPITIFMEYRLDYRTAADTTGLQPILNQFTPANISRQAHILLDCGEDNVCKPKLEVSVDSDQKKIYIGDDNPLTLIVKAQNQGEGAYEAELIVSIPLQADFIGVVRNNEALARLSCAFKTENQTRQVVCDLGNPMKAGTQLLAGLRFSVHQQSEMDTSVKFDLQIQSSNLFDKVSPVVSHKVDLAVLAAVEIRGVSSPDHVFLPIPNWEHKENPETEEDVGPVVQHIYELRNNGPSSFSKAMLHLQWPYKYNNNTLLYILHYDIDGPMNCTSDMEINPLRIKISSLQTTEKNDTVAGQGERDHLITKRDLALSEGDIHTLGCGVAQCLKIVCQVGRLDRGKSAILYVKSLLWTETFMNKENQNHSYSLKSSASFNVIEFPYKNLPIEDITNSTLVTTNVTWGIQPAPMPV
Chain of αvβ1 (P05556 21-728 limits assumed): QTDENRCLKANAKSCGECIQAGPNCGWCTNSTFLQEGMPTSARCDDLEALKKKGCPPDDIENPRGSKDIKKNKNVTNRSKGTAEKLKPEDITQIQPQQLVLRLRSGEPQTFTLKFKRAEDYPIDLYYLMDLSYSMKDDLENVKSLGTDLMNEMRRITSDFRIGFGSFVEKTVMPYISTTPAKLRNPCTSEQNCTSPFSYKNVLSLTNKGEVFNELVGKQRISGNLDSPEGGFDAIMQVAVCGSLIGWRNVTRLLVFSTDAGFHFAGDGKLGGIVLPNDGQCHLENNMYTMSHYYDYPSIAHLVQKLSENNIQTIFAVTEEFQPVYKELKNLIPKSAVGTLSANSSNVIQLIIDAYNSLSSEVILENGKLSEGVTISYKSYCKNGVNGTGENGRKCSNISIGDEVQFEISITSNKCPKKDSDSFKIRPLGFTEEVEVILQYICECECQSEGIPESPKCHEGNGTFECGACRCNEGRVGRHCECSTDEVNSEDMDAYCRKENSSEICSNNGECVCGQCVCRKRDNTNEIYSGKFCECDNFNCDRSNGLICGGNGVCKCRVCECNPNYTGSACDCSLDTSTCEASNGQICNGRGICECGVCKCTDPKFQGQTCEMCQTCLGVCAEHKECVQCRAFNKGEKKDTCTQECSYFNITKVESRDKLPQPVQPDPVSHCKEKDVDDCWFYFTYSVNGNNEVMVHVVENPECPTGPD
Chain of αvβ6 (P06756 31-992 limits assumed): as the sequence (P06756 31-992 limits assumed) above
Chain of αvβ6 (P18564 22-707 limits assumed): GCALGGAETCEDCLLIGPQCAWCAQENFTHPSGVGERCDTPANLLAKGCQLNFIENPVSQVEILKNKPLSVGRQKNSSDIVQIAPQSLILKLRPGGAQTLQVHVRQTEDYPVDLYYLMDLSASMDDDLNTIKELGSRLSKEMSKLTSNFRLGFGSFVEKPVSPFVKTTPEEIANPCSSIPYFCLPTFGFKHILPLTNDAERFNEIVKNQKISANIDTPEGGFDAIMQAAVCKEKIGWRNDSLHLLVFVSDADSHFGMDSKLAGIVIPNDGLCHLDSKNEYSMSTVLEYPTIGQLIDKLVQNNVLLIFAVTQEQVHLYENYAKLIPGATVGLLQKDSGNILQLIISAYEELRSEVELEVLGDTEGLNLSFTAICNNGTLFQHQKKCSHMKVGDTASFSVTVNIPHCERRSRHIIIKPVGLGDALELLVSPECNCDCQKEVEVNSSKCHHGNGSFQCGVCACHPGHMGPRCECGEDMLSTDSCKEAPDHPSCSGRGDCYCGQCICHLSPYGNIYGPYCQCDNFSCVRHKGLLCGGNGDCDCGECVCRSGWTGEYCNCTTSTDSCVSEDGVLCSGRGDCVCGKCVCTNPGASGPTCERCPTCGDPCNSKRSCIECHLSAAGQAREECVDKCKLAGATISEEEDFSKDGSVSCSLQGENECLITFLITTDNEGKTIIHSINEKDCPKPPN

As for `O=C(N[C@@H](CNC(=O)[C@@H]1CCCN(CCCc2ccc3c(n2)NCCC3)C1)C(=O)O)c1ccccc1` [Compound 544], the IC50 at αvβ6 and against αvβ1 was under 100 nM in each case.

`O=C(O)[C@H](CCO[C@@H]1CCCN(CCCCc2ccc3c(n2)NCCC3)C1)Nc1ncnc2ccccc12` [Compound 385]: the values for the half-inhibitory concentration (IC50) on αvβ6 and against αvβ1 were 100 to 1000 nM and over 1000 nM, respectively.

`O=C(O)CC(CC(=O)N[C@H]1CCN(CCCCc2ccc3c(n2)NCCC3)C1)c1ccccc1` (stereo partly drawn) [Compound 525]: the IC50 at αvβ6 is 100 to 1000 nM; against αvβ1, under 100 nM.

With `CC1(C)CN(c2cc([C@H](CO[C@@H]3CCCN(CCCc4ccc5c(n4)NCCC5)C3)CC(=O)O)ccc2Cl)CCO1` [Compound 648], the IC50 at αvβ6 and at αvβ1 was 100 to 1000 nM throughout.

Turning to `O=C(CC[C@H](NC(=O)C12CCC(CC1)CC2)C(=O)O)N[C@H]1CCN(CCCCc2ccc3c(n2)NCCC3)C1` [Compound 430], the IC50 at αvβ6 and against αvβ1 was under 100 nM each time.

Turning to `C[C@H]1C[C@@H](C(=O)NC[C@H](C(=O)O)c2ccc3ccccc3c2)CN(CCCc2ccc3c(n2)NCCC3)C1` [Compound 633], the IC50 at αvβ6 and against αvβ1 was under 100 nM each time.

On to `CN1CCc2cc(S(=O)(=O)N[C@@H](CNC(=O)[C@@H]3CCCN(CCCc4ccc5c(n4)NCCC5)C3)C(=O)O)ccc21` [Compound 542], for which the values for the IC50 against αvβ6 and against αvβ1 were under 100 nM and 100 to 1000 nM, respectively.

As for `O=C(O)C[C@H](NC(=O)[C@@H]1CCCN(CCCc2ccc3c(n2)NCCC3)C1)c1cc(F)cc(C(F)(F)F)c1` [Compound 208-B, 3-(3-fluoro-5-(trifluoromethyl)phenyl)-3-((R)-1-(3-(5,6,7,8-tetrahydro-1,8-naphthyridin-2-yl)propyl)piperidine-3-carboxamido)propanoic acid], the IC50 is 100 to 1000 nM on αvβ6 and over 1000 nM against αvβ1.

Regarding `O=C(NC[C@H](NC(=O)C1(c2ccccc2)CC1)C(=O)O)[C@@H]1CCCN(CCCc2ccc3c(n2)NCCC3)C1` [Compound 547], the IC50 at αvβ6 and on αvβ1 was under 100 nM each time.

As to `O=C(NC[C@@H](Nc1ccccc1C1CC(F)(F)C1)C(=O)O)[C@@H]1CCCN(CCCc2ccc3c(n2)NCCC3)C1` [Compound 588], the IC50 against αvβ6 and against αvβ1 was under 100 nM each time.

On to `O=C(O)[C@H](CO[C@@H]1CCCN(CCCc2ccc3c(n2)NCCC3)C1)Nc1ncnc2ccccc12` [Compound 388], for which the results for the IC50 on αvβ6 and against αvβ1 were under 100 nM and 100 to 1000 nM, respectively.

On to `CC1(C)CCCN(c2cccc([C@H](CO[C@@H]3CCCN(CCCc4ccc5c(n4)NCCC5)C3)CC(=O)O)c2)C1` [Compound 572], for which the IC50 against αvβ6 and on αvβ1 was under 100 nM each time.

Take `O=C(O)C[C@@H](CO[C@@H]1CCCN(CCCc2ccc3c(n2)NCCC3)C1)c1cccc(N2C[C@@H]3CC[C@H]2CO3)c1` [Compound 464]: the IC50 against αvβ6 and against αvβ1 was 100 to 1000 nM in each case.

As for `O=C(O)[C@@H](CO[C@@H]1CCCN(Cc2ccc3c(n2)NCCC3)C1)NC(=O)C12CCC(CC1)CC2` [Compound 403], the IC50 against αvβ6 and against αvβ1 was over 1000 nM in each case.

With `Cc1cc(C)n(-c2cccc([C@H](CO[C@@H]3CCCN(CCCc4ccc5c(n4)NCCC5)C3)CC(=O)O)c2)n1` [Compound 575], the figures for the IC50 on αvβ6 and on αvβ1 were under 100 nM and 100 to 1000 nM, respectively.

In the case of `O=C(O)C[C@H](NC(=O)[C@@H]1CCCN(CCCc2ccc3c(n2)NCCC3)C1)c1cccc([C@H]2CCOC2)c1` [Compound 534], the IC50 against αvβ6 and against αvβ1 was under 100 nM each time.

Turning to `O=C(O)CC(NC(=O)[C@@H]1CCCN(CCCc2ccc3c(n2)NCCC3)C1)c1cccc(O)c1` (stereo partly drawn) [Compound 377], the IC50 against αvβ6 and against αvβ1 was under 100 nM each time.

As for `CNC(=O)[C@H]1C[C@H](C(=O)N[C@@H](CC(=O)O)c2ccccc2)CN(CCCc2ccc3c(n2)NCCC3)C1` [Compound 607], the IC50 against αvβ6 and at αvβ1 was under 100 nM each time.

`O=C(N[C@@H](CNC(=O)[C@@H]1CCCN(CCCc2ccc3c(n2)NCCC3)C1)C(=O)O)C1CCOCC1` [Compound 311]: the IC50 on αvβ6 and against αvβ1 was under 100 nM throughout.

Take `O=C(N[C@@H](CNC(=O)[C@@H]1CCCN(CCCc2ccc3c(n2)NCCC3)C1)C(=O)O)c1ccc(Cl)cc1` [Compound 372]: the IC50 at αvβ6 and on αvβ1 was under 100 nM throughout.

As for `O=C(NC[C@H](Nc1cccc2ccccc12)C(=O)O)[C@@H]1CCCN(CCCc2ccc3c(n2)NCCC3)C1` [Compound 261, (S)-2-(naphthalen-1-ylamino)-3-((R)-1-(3-(5,6,7,8-tetrahydro-1,8-naphthyridin-2-yl)propyl)piperdine-3-carboxamido)propanoic acid], the IC50 against αvβ6 and against αvβ1 was under 100 nM each time.

On to `O=C(NC[C@@H](C(=O)O)c1cccc2c1cnn2CC1CC1)[C@@H]1CCCN(CCCc2ccc3c(n2)NCCC3)C1` [Compound 314], for which the IC50 against αvβ6 and at αvβ1 was 100 to 1000 nM in each case.

Consider `O=C(NC[C@@H](Nc1cc(-c2ccccc2)ncn1)C(=O)O)[C@@H]1CCCN(CCCc2ccc3c(n2)NCCC3)C1` [Compound 449], for which the IC50 against αvβ6 and against αvβ1 was under 100 nM each time.

For the compound `O=C(NC[C@H](C(=O)O)c1cccc2cnn([C@H]3CCOC3)c12)[C@@H]1CCCN(CCCc2ccc3c(n2)NCCC3)C1` [Compound 321], the IC50 on αvβ6 was 100 to 1000 nM; at αvβ1, under 100 nM.

As to `O=C(O)[C@H](CCO[C@@H]1CCCN(CCc2ccc3c(n2)NCCC3)C1)NC(=O)C12CCC(CC1)CC2` [Compound 398], the IC50 at αvβ6 and at αvβ1 was under 100 nM in each case.

On to `O=C(N[C@@H](CNC(=O)[C@@H]1CCCN(CCCc2ccc3c(n2)NCCC3)C1)C(=O)O)c1cccc(Cl)c1` [Compound 373], for which the IC50 against αvβ6 and at αvβ1 was under 100 nM in each case.

Regarding `C[C@H]1C[C@@H](C(=O)N[C@@H](CC(=O)O)c2ccccc2)CN(CCCc2ccc3c(n2)NCCC3)C1` [Compound 552], the IC50 against αvβ6 and on αvβ1 was 100 to 1000 nM each time.

On to `O=C(N[C@@H](CNC(=O)[C@@H]1CCCN(CCCc2ccc3c(n2)NCCC3)C1)C(=O)O)c1ccccc1C1CC1` [Compound 371], for which the IC50 on αvβ6 and on αvβ1 was under 100 nM throughout.

Take `O=C(CC[C@@H](NC(=O)C12CCC(CC1)CC2)C(=O)O)N[C@@H]1CCN(C(=O)CCCc2ccc3c(n2)NCCC3)C1` [Compound 429]: the IC50 at αvβ6 and on αvβ1 was over 1000 nM in each case.

For the compound `O=C(CC[C@@H](C(=O)O)c1ccccc1)N[C@H]1CCN(C(=O)CCCc2ccc3c(n2)NCCC3)C1` [Compound 423], the IC50 against αvβ6 and against αvβ1 was over 1000 nM each time.

For `O=C(CC[C@@H](C(=O)O)c1ccccc1)N[C@@H]1CCN(CCCCc2ccc3c(n2)NCCC3)C1` [Compound 421], the IC50 at αvβ6 and against αvβ1 was over 1000 nM in each case.

With `O=C(O)[C@@H](CCO[C@H]1CCCN(CCCc2ccc3c(n2)NCCC3)C1)NC(=O)C12CCC(CC1)CC2` [Compound 443], the IC50 against αvβ6 and on αvβ1 was 100 to 1000 nM each time.

With `O=C(Nc1ccccc1)N[C@@H](CNC(=O)[C@@H]1CCCN(CCCc2ccc3c(n2)NCCC3)C1)C(=O)O` [Compound 567], the concentration for half-maximal inhibition (IC50) at αvβ6 and against αvβ1 was under 100 nM throughout.

As for `Cc1cc(C)n(-c2cccc([C@@H](CNC(=O)[C@@H]3CCCN(CCCc4ccc5c(n4)NCCC5)C3)C(=O)O)c2)n1` [Compound 257-B, 2-(3-(3,5-dimethyl-1H-pyrazol-1-yl)phenyl)-3-((R)-1-(3-(5,6,7,8-tetrahydro-1,8-naphthyridin-2-yl)propyl)piperidine-3-carboxamido)propanoic acid], the half-inhibitory concentration (IC50) against αvβ6 and on αvβ1 was under 100 nM throughout.

On to `O=C(O)C[C@H](NC(=O)[C@@H]1CCCN(CCCc2ccc3c(n2)NCCC3)C1)c1cccc([C@@H]2CCOC2)c1` [Compound 533], for which the IC50 at αvβ6 and at αvβ1 was under 100 nM throughout.

As to `O=C(O)C[C@H](NC(=O)[C@@H]1CCCN(CCCc2ccc3c(n2)NCCC3)C1)c1cccc2c1CCCC2` [Compound 212-A, 3-((R)-1-(3-(5,6,7,8-tetrahydro-1,8-naphthyridin-2-yl)propyl)piperidine-3-carboxamido)-3-(5,6,7,8-tetrahydronaphthalen-1-yl)propanoic acid], the IC50 against αvβ6 and against αvβ1 was over 1000 nM in each case.

Take `CC1(C)CCN(c2cccc([C@H](CO[C@@H]3CCCN(CCCc4ccc5c(n4)NCCC5)C3)CC(=O)O)c2)CC1` [Compound 573]: the IC50 against αvβ6 and against αvβ1 was 100 to 1000 nM throughout.

On to `O=C(NC[C@H](Nc1ncnc2c(C(F)(F)F)cccc12)C(=O)O)[C@@H]1CCCN(CCCc2ccc3c(n2)NCCC3)C1` [Compound 562], for which the IC50 on αvβ6 and against αvβ1 was under 100 nM each time.

For the compound `O=C(O)[C@H](CO[C@@H]1CCCN(CCCCc2ccc3c(n2)NCCC3)C1)NC(=O)C12CCC(CC1)CC2` [Compound 402], the IC50 on αvβ6 was under 100 nM; against αvβ1 it was 100 to 1000 nM.

`C[C@@H]1C[C@@H](C(=O)NC[C@H](C(=O)O)c2cccc(-c3ccccc3)c2)CN(CCCc2ccc3c(n2)NCCC3)C1` [Compound 630]: the IC50 at αvβ6 and against αvβ1 was over 1000 nM each time.

On to `O=C(CC[C@@H](NC(=O)[C@@H]1CCCN1S(=O)(=O)c1ccccc1)C(=O)O)N[C@H]1CCN(CCCCc2ccc3c(n2)NCCC3)C1` [Compound 437], for which the IC50 is over 1000 nM on αvβ6 and under 100 nM on αvβ1.

For `C[C@@H]1CN(c2cccc([C@H](CNC(=O)[C@@H]3CCCN(CCCc4ccc5c(n4)NCCC5)C3)C(=O)O)c2)C[C@@H](C)O1` [Compound 605], the IC50 against αvβ6 and at αvβ1 was under 100 nM each time.
